Active and inactive are the calls of the source. The rule behind the calls is not given here.
Columns and labels:
T47D [1] = test: Effect on R5020-induced PR-B phosphorylation at Ser294 residue in human T47D cells at 10 uM incubated for 60 mins by western blot analysis; type: functional, cell-based
[2] = molecular target: T1, Estrogen receptor (Homo sapiens) (UniProt P03372); test: Induction of estrogen receptor in human T47D cells assessed as potentiation of progesterone transcriptional activity by measuring increase in HRE-Luc activity at 10 uM measured after 24 hrs in presence of 5 nM progesterone by HRE-dependent dual luciferase reporter gene assay; type: cell-based; details: filed as activator
T1 sequence (whole entry): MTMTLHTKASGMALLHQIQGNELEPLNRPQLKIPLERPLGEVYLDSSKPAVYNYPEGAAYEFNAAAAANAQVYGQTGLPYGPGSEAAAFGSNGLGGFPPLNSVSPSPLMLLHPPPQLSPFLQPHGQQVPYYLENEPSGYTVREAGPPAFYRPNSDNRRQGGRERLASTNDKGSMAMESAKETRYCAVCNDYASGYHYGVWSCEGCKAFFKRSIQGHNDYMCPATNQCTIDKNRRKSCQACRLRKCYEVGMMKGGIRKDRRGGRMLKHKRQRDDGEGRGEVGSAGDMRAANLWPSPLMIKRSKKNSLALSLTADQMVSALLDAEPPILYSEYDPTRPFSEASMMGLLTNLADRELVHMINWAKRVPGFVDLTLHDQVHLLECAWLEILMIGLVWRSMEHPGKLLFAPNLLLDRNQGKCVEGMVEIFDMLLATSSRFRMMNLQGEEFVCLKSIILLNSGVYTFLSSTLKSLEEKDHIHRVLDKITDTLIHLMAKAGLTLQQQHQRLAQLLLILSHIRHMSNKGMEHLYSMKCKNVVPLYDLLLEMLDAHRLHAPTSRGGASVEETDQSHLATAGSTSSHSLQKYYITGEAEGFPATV

[3] = molecular target: T2, Glucocorticoid receptor (Homo sapiens) (UniProt P04150); test: Induction of glucocorticoid receptor in human Ishikawa PR-B cells assessed as potentiation of progesterone transcriptional activity by measuring increase in HRE-Luc activity at 10 uM measured after 24 hrs in presence of 5 to 100 nM progesterone by HRE-dependent dual luciferase reporter gene assay; type: cell-based; details: filed as activator
T2 sequence (whole entry): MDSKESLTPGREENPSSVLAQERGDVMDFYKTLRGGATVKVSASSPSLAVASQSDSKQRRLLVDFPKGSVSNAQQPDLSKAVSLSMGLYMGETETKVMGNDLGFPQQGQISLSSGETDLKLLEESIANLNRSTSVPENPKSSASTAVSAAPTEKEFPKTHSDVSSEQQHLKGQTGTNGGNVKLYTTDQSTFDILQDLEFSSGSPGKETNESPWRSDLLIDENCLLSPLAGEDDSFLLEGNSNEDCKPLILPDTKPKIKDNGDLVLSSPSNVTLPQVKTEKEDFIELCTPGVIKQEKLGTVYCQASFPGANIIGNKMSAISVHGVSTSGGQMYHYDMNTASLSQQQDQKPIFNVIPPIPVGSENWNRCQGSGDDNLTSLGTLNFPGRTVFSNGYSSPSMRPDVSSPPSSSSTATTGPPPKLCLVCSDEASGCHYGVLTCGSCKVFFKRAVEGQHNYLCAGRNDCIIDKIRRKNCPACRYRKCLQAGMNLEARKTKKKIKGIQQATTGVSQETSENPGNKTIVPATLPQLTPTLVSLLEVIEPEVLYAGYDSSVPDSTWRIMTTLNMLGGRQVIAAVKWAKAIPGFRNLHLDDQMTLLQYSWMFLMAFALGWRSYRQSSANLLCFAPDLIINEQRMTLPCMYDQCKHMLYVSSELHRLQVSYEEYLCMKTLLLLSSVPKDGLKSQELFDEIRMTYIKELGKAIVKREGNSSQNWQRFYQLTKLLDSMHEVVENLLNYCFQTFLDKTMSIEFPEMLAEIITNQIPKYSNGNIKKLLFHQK

[4] = molecular target: T1, Estrogen receptor (Homo sapiens); test: Induction of estrogen receptor in human T47D cells assessed as increase in HRE-luc activity at 10 uM measured after 24 hrs by HRE-dependent dual luciferase reporter gene assay relative to control; type: cell-based; details: filed as activator
[5] = molecular target: T2, Glucocorticoid receptor (Homo sapiens); test: Induction of glucocorticoid receptor in human Ishikawa PR-B cells assessed as increase in HRE-luc activity at 10 uM measured after 24 hrs by HRE-dependent dual luciferase reporter gene assay relative to control; type: cell-based; details: filed as activator
[6] = molecular target: T1, Estrogen receptor (Homo sapiens); test: Induction of estrogen receptor in human T47D cells assessed as increase in PR-A protein expression at 10 uM incubated for 24 hrs in presence of SERM, 4-OH-TAM by western blot analysis; type: cell-based
[7] = molecular target: T1, Estrogen receptor (Homo sapiens); test: Induction of estrogen receptor in human T47D cells assessed as increase in PR-B protein expression at 10 uM incubated for 24 hrs in presence of SERM, 4-OH-TAM by western blot analysis; type: cell-based
T47D [8] = test: Effect on R5020-induced PR-A phosphorylation at Ser294 residue in human T47D cells at 10 uM incubated for 60 mins by western blot analysis; type: functional, cell-based
[9] = molecular target: T1, Estrogen receptor (Homo sapiens); test: Induction of estrogen receptor in human T47D cells assessed as increase in ERE/Luc activity at 10 uM measured after 24 hrs by luciferase reporter gene assay relative to control; type: cell-based; details: filed as activator
Ishikawa [10] = test: Potentiation of progesterone signalling in human Ishikawa null cells transfected with wild type PR assessed as induction of HRE/uc activity at 10 uM incubated for 24 hrs in presence of progesterone by luciferase reporter gene assay relative to control; type: functional
Ishikawa [11] = test: Induction of HRE/Luc activity in human Ishikawa null cells at 10 uM incubated for 24 hrs by luciferase reporter gene assay; type: functional, cell-based
[12] = Induction of epithelial cells proliferation in uterus of ovariectomized CD-1 mouse at 4 mg/kg, ip administered once a day for 7 days and measured on day 7 at 6 hrs post-last dosage by PCNA staining based immunohistochemistry (reference value: 33.3%); type: organism-based; details: in vivo, 168 h, time 7 day
[13] = Induction of epithelial cells proliferation in uterus of ovariectomized CD-1 mouse at 4 mg/kg, ip administered once a day for 7 days in presence of progesterone and measured on day 7 at 6 hrs post-last dosage by PCNA staining based immunohistochemistry (reference value: 7%); type: organism-based; details: in vivo, 168 h, time 7 day
Mus musculus = test: In vivo potentiation of progesterone signalling in ovariectomized CD-1 mouse assessed as increase in FKBP5 expression in reproductive tract at 4 mg/kg, ip administered once a day for 7 days in presence of progesterone and measured on day 7 at 6 hrs post-last dosage by immunohistochemistry; type: functional, organism-based; details: time 7.0 day
[14] = Induction of HRE/Luc activity in human Ishikawa PR-B cells transfected with GR siRNA at 10 uM incubated for 24 hrs in presence of progesterone by luciferase reporter gene assay relative to control; type: functional
[15] = molecular target: T2, Glucocorticoid receptor (Homo sapiens); test: Induction of glucocorticoid receptor in human Ishikawa PR-B cells transfected with scrambled siRNA assessed as potentiation of progesterone signalling by measuring increase in HRE/Luc activity at 10 uM incubated for 24 hrs in presence of progesterone by luciferase reporter gene assay relative to control; type: cell-based; details: filed as activator
Ishikawa [16] = test: Induction of HRE/Luc activity in human Ishikawa null cells at 10 uM incubated for 24 hrs in presence of progesterone by luciferase reporter gene assay; type: functional, cell-based
Ishikawa [17] = test: Potentiation of progesterone receptor signalling in human Ishikawa null cells transfected with wild type PR assessed as induction of HRE/uc activity at 10 uM incubated for 24 hrs by luciferase reporter gene assay relative to control; type: functional
Ishikawa [18] = test: Increase in GR protein expression in human Ishikawa PR-B cells at 10 uM incubated for 24 hrs by western blot analysis; type: functional, cell-based
OVCAR-5 [19] = test: Increase in GR protein expression in human OVCAR-5 cells at 10 uM incubated for 24 hrs by western blot analysis; type: functional, cell-based
T47D [20] = test: Effect on PR-A phosphorylation at Ser294 residue in human T47D cells at 10 uM incubated for 60 mins by western blot analysis; type: functional, cell-based
T47D [21] = test: Effect on PR-B phosphorylation at Ser294 residue in human T47D cells at 10 uM incubated for 60 mins by western blot analysis; type: functional, cell-based
Ishikawa [22] = test: Effect on PR-B protein expression in human Ishikawa PR-B cells at 10 uM incubated for 24 hrs by western blot analysis; type: functional, cell-based
Ishikawa [23] = test: Increase in PR-B protein expression in human Ishikawa PR-B cells at 10 uM incubated for 24 hrs in presence of 100 nM progesterone by western blot analysis; type: functional, cell-based
Ishikawa [24] = test: Decrease in PR-B protein expression in human Ishikawa PR-B cells at 10 uM incubated for 24 hrs in presence of 100 nM progesterone by western blot analysis; type: functional, cell-based
[25] = molecular target: T1, Estrogen receptor (Homo sapiens); test: Induction of estrogen receptor in human T47D cells assessed as increase in PR-B protein expression at 10 uM incubated for 24 hrs by western blot analysis; type: cell-based; details: filed as activator
[26] = molecular target: T1, Estrogen receptor (Homo sapiens); test: Induction of estrogen receptor in human T47D cells assessed as increase in PR-B protein expression at 10 uM incubated for 24 hrs in presence of progesterone by western blot analysis; type: cell-based
[27] = molecular target: T1, Estrogen receptor (Homo sapiens); test: Induction of estrogen receptor in human T47D cells assessed as increase in PR-B protein expression at 10 uM incubated for 24 hrs in presence of SERM, 4-OH-TAM and progesterone by western blot analysis; type: cell-based
[28] = molecular target: T1, Estrogen receptor (Homo sapiens); test: Induction of estrogen receptor in human T47D cells assessed as increase in PR-A protein expression at 10 uM incubated for 24 hrs in presence of SERM, 4-OH-TAM and progesterone by western blot analysis; type: cell-based
[29] = molecular target: T2, Glucocorticoid receptor (Homo sapiens); test: Agonist activity at GR in human OVCAR-5 cells assessed as induction of HRE/Luc activity at 1 to 10 uM incubated for 24 hrs by luciferase reporter gene assay; type: cell-based; details: dose 1-10 µM
OVCAR-5 [30] = test: Repression of dexamethasone-induced HRE/Luc activity in human OVCAR-5 cells at 10 uM incubated for 24 hrs by luciferase reporter gene assay; type: functional
OVCAR-5 [31] = test: Repression of dexamethasone-induced HRE/Luc activity in human OVCAR-5 cells at 1 to 5 uM incubated for 24 hrs by luciferase reporter gene assay; type: functional, cell-based; details: dose 1-5 µM
Ishikawa [32] = test: Effect on PR-A protein expression in human Ishikawa PR-B cells at 10 uM incubated for 24 hrs by western blot analysis; type: functional, cell-based
Ishikawa [33] = test: Increase in PR-A protein expression in human Ishikawa PR-B cells at 10 uM incubated for 24 hrs in presence of 100 nM progesterone by western blot analysis; type: functional, cell-based
Ishikawa [34] = test: Decrease in PR-A protein expression in human Ishikawa PR-B cells at 10 uM incubated for 24 hrs in presence of 100 nM progesterone by western blot analysis; type: functional, cell-based
[35] = molecular target: T1, Estrogen receptor (Homo sapiens); test: Induction of estrogen receptor in human T47D cells assessed as increase in PR-A protein expression at 10 uM incubated for 24 hrs by western blot analysis; type: cell-based; details: filed as activator
[36] = molecular target: T1, Estrogen receptor (Homo sapiens); test: Induction of estrogen receptor in human T47D cells assessed as increase in PR-A protein expression at 10 uM incubated for 24 hrs in presence of progesterone by western blot analysis; type: cell-based

- Activity [2]: Active
- Activity [3]: Active
- fold change (FC) [4]: 1.07
- fold change (FC) [5]: 1.2
- Activity [6]: inactive
- Activity [7]: inactive
- fold change (FC) [9]: 4
- fold change (FC) [15]: 44
- Activity [25]: Active
- Activity [26]: inactive
- Activity [27]: inactive
- Activity [28]: inactive
- Activity [29]: inactive
- Activity [35]: Active
- Activity [36]: inactive
Compound: O=c1c(-c2ccc(O)cc2)coc2cc3c(c(O)c12)OCO3
- Activity (T47D [1]): inactive
- Activity (T47D [8]): inactive
- fold change (FC) (Ishikawa [10]): 38
- Activity (Ishikawa [11]): inactive
- Activity [12]: 18.4%
- Activity [13]: 0.93%
- Activity (Mus musculus): inactive
- fold change (FC) [14]: 30
- Activity (Ishikawa [16]): inactive
- fold change (FC) (Ishikawa [17]): 5.8
- Activity (Ishikawa [18]): Active
- Activity (OVCAR-5 [19]): inactive
- Activity (T47D [20]): inactive
- Activity (T47D [21]): inactive
- Activity (Ishikawa [22]): inactive
- Activity (Ishikawa [23]): inactive
- inhibition (Ishikawa [24]): inactive
- inhibition at 10 µM (OVCAR-5 [30]): 22%
- inhibition (OVCAR-5 [31]): inactive
- Activity (Ishikawa [32]): inactive
- Activity (Ishikawa [33]): inactive
- inhibition (Ishikawa [34]): inactive
